The target of one assay is T1, ACE (Oryctolagus cuniculus, UniProt P12822).
T1 construct: ACE (250 mU/ml purified by lung rabbit, EC 3.4.15.1 SIGMA); purchased SIGMA; host or cells: rabbit lung
T1 sequence (P12822 34-1310): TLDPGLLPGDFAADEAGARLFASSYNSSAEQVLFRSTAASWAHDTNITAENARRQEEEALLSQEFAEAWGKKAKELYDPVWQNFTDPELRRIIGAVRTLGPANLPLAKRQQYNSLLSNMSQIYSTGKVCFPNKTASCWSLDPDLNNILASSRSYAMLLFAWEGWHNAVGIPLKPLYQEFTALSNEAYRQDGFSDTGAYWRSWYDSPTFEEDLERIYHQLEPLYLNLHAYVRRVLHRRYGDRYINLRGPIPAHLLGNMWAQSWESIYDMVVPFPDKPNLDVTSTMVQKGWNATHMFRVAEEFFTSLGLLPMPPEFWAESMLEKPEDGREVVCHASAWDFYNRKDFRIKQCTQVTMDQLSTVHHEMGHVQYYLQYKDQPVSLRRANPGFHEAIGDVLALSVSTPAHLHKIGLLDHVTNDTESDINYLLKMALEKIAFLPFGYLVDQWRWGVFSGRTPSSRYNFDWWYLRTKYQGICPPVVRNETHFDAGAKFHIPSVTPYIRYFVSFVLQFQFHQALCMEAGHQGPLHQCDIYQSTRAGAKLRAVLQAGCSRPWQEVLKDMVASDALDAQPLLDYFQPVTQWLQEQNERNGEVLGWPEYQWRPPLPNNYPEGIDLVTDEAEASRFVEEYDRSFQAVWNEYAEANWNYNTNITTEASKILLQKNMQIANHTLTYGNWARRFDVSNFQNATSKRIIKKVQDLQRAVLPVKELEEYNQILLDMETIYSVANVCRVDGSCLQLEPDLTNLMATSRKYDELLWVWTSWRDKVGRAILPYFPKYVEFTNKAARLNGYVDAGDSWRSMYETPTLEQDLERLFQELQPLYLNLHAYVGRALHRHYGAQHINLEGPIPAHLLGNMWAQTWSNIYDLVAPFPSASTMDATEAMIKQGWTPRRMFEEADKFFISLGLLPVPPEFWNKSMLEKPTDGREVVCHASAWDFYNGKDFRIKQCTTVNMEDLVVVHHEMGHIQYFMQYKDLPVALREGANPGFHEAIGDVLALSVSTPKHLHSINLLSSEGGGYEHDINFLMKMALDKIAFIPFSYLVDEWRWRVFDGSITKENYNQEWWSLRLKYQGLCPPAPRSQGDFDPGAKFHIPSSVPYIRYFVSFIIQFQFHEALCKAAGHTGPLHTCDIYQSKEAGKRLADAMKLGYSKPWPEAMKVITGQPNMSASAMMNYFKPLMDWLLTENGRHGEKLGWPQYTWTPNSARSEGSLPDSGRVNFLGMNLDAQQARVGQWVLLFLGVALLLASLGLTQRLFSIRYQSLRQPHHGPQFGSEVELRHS
Nature of the assay: ACE-inhibitory activity (FAPGG hydrolysis, absorbance at 340 nm). It is filed as biochemical. The following applies: ACE purified by lung rabbit, FAPGG 0.8 mM, 37°C; compounds of formula I tested in the form of sodium salts. The procedure: […] of ACE (250 mU/ml purified by lung rabbit, EC 3.4.15.1 SIGMA) with 50 µl of the compound of formula I or of the reference compounds, were preincubated in thermostated cuvettes at 37°C for 5 minutes.
The reaction was started by adding furylacryloylphenylalanylglycylglycine 0.8 mM (FAPGG-SIGMA).
Contemporaneously, by using a Beckman DU-50 spectrophotometer provided with a program for calculating delta A/minutes and regression coefficients of the enzyme kinetics curves, the absorbance at 340 nm was recorded in continuo for 5 minutes.

For the next assay, the target named is T2, NEP (Rattus norvegicus, UniProt P07861).
T2 sequence (P07861 1-750): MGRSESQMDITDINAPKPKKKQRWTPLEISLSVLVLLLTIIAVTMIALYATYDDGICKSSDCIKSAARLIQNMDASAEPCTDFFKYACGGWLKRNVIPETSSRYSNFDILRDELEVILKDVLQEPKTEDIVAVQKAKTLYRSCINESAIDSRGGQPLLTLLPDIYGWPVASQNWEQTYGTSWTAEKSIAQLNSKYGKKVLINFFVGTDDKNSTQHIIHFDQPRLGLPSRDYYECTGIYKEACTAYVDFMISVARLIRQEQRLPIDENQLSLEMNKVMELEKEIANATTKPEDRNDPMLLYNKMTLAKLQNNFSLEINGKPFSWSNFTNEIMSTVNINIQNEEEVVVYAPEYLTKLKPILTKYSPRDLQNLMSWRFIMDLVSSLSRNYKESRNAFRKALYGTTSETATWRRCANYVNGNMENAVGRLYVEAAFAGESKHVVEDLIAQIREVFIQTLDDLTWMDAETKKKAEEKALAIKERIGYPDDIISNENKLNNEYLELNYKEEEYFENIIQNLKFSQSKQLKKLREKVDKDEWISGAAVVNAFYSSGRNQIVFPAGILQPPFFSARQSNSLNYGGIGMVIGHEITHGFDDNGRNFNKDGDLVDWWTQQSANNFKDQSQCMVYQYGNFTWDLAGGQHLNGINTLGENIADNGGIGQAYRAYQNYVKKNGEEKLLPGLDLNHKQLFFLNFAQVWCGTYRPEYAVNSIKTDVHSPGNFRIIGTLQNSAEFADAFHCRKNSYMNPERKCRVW
Nature of the assay: NEP-inhibitory activity (inhibition of [3H]Tyr-Gly-Gly formation from [3H][Leu5]-enkephaline in kidney cortex membranes).

This is an account of results in patent publication EP0766694B1 (ZAMBON GROUP S.p.A., priority 1994, dated 1995).

The IC50 is the point on the concentration scale where inhibition reaches its midpoint.

Structures can show the parent of a compound that is named as a salt.

Consider `CC(C)C[C@H](N[C@@H](CCc1ccccc1)C(=O)O)C(=O)N[C@@H](Cc1ccc(-c2ccccc2)cc1)C(=O)O` [Compound 1, N-[N'-[(1S)-1-carboxy-3-phenyl-propyl]-L-leucyl]-(1.1'-biphenyl-4-yl)-L-alanine disodium salt], for which the IC50 at ACE worked out at 1.5 nM; at NEP, 27.7 nM. `CC(C)C[C@H](N[C@@H](CC(=O)NCc1ccccc1)C(=O)O)C(=O)N[C@@H](Cc1ccc(-c2ccccc2)cc1)C(=O)O` [Compound 20]: the figures for the IC50 on ACE and against NEP were 15 nM and 53 nM, respectively. Taken in the same sequence, the figures for `O=C(O)[C@H](Cc1ccc(-c2ccccc2)cc1)NC(=O)[C@H](Cc1cccs1)N[C@@H](CCc1ccccc1)C(=O)O` [Compound 15] were 1.8 nM and 10 nM. Taken in the same sequence, the figures for `CC(C)C[C@H](N[C@@H](CCC(=O)Nc1ccccc1)C(=O)O)C(=O)N[C@@H](Cc1ccc(-c2ccccc2)cc1)C(=O)O` [Compound 17] were 2.2 nM and 27 nM.

Take `CC(C)[C@H](N[C@@H](CCc1ccccc1)C(=O)O)C(=O)N[C@@H](Cc1ccc(-c2ccccc2)cc1)C(=O)O` [Compound 10]: the figures for the IC50 at ACE and at NEP were 2 nM and 41 nM, respectively. As for `C[C@H](CS)C(=O)N1CCC[C@H]1C(=O)O` [Captopril, reference compound], the “NEP-inhibitory activity IC50 (nM)” value on NEP (membranes from rat kidney cortex, [3H][Leu5]-enkephaline 15 nM, 20 minutes at 30°C, compounds of formula I tested in the form of sodium salts) is “not active”.
